Data reported in US11369659B2, “Method of enhancing a brain or cognitive function” (Brainon Inc., priority 2015, dated 2022).

Experiments:
[1] = system: scopolamine-induced memory deterioration; assay: Y maze test; assay type: in vivo, ICR mice; settings: for spontaneous alternation (memory improving effect): male ICR mice, peptide intraperitoneally 30 minutes before scopolamine, scopolamine 30 minutes before test, compared with scopolamine-administered group
Method: Scopolamine was purchased from Sigma-Aldrich (St. Louis, Mo., USA). 4-week-old male ICR mice were purchased from Korean BioLink Co. (Chungbuk, Korea). After an adaptation period of one week, the mice were used in a test and all reagents were administered intraperitoneally.
The mouse was placed at one end of a Y maze with a length of one branch of 30 cm, a width of 5 cm, and a height of 13 cm and the order of entry into each branch was recorded. Alternation was judged to be successful if the mouse sequentially entered three different branches. Spontaneous alternation was defined as Equation below. Spontaneous alternation (%)=the number of alternations/(total number of entries−2)×100

[2] = system: scopolamine-induced memory deterioration; assay: step-through passive avoidance test; assay type: in vivo; settings: male ICR mice; peptide intraperitoneally 30 minutes before scopolamine; scopolamine 30 minutes before test; retention trial after 24 hours; compared with scopolamine-administered group
Method: Louis, Mo., USA). 4-week-old male ICR mice were purchased from Korean BioLink Co. (Chungbuk, Korea). After an adaptation period of one week, the mice were used in a test and all reagents were administered intraperitoneally. […] A passive avoidance test was performed in the same bright room and dark room. A floor of each room was formed in a shape in which 2-mm stainless steel rods were separated from each other at 1-cm intervals. Bright squares (20×20×20 cm) had 100-W bulbs. These squares were connected to a guillotine door. For an acquisition trial, the mouse was placed in the bright room after injection of the reagents and the door was opened after 10 seconds. When the mouse completely entered the dark room, the door was closed and electric shock was applied for 3 seconds. A retention trial was performed after 24 hours of the acquisition trial and the mouse was positioned in the bright room. A latency time of the acquisition and retention trials was measured by a time until the mouse entered the dark room of the box after the door was opened. The retention latency in the passive avoidance test represents a long-term memory function in rodents.

Molecule	mean of spontaneous alternations ([1]; scopolamine-injected group compared with normal saline group)	retention trial latency time (memory improving effect) [2]	spontaneous alternation (memory improving effect) [1]	spontaneous alternation (memory improving effect) ([1]; listed as sequence number 2)
CN1[C@@H]2C[C@@H](OC(=O)[C@H](CO)c3ccccc3)C[C@H]1[C@@H]1O[C@@H]12 [scopolamine, Scopolamine, reference compound]	significantly lowered			
AGAG [Peptide-3]		a little effect	excellent effect as compared with a control group	
GAG [Peptide-2]		improved to be close to a normal group administered with saline	slight improvement	excellent effect as compared with a control group
